Reference: PMC8457121, “From Kinase Inhibitors to Multitarget Ligands as Powerful Drug Leads for Alzheimer's Disease using Protein‐Templated Synthesis” (Angewandte Chemie (International Ed. in English), 2021)
Each block holds one molecule with its values, some of them ahead of it.

Tests used:
PAMPA-BBB test = type: in vitro ADME; conditions: PAMPA-BBB; for Papp at 2.5 h / Pe exp: PBS pH 7.4/DMSO 95/5, 2.5 h, room temperature; for Papp at 2.5 h: read-out: Pe exp
Procedure: dissolved in 250 µL of DMSO (Sigma-Aldrich). 25 µL of these compound stock
solutions were taken and 225 µL of DMSO and 4750 µL of PBS pH 7.4 buffer
compound concentration in the range of 0.2 to 1.1 mM. Compounds to be
µL of DMSO and 4750 µL of PBS pH 7.4 was carefully added to afford a final
compound concentration in the range of 0.2 to 1.1 mM. Solutions were filtered
using filter PDVF membrane units (diameter 30 mm, pore size 0.45 μm, Symta).
10 µL of each solution were taken and diluted 10-fold with PBS/DMSO (95/5) for
HPLC-MS analysis. The acceptor 96-well plate (Multiscreen®, catalog no.
MAMCS9610, Millipore) was filled with 180 µL of PBS/DMSO (95/5). The donor
96-well plate (Multiscreen® IP Sterile Plate PDVF membrane, pore size is 0.45
M, catalog no. MAIPS4510, Millipore) was coated with 4 µL 20 mg·mL-1 of
for 5 min and then 180 µL of each compound solution was added. Then the donor
plate was put on the acceptor plate and kept for 2.5 h at room temperature. After
incubation, samples were collected from the acceptor plate and diluted 10-fold
with PBS/DMSO (95/5) for HPLC-MS analysis and compared to HPLC-MS of
initial solutions. Absorbance peak of each compound was determined by MS
detection and was used to calculate the concentration of compounds and
Every sample was analysed in two independent
runs. HPLC-MS was performed using a HPLC-MS equipment from Thermo
Fisher coupled to a Finnigan TM LXQ TM detector. Each compound was
analysed using a Sunfire column C18, 3.5 μm (50 mm x 4.6 mm) and acetonitrile
and Milli-Q water (with 0.1% formic acid) as mobile phase. The standard gradient

CK1δ = CK1δ (Homo sapiens, UniProt P48730); assay: CK1δ inhibition enzymatic assay (Kinase-Glo); type: biochemical
Sequence of CK1δ (P48730 whole entry): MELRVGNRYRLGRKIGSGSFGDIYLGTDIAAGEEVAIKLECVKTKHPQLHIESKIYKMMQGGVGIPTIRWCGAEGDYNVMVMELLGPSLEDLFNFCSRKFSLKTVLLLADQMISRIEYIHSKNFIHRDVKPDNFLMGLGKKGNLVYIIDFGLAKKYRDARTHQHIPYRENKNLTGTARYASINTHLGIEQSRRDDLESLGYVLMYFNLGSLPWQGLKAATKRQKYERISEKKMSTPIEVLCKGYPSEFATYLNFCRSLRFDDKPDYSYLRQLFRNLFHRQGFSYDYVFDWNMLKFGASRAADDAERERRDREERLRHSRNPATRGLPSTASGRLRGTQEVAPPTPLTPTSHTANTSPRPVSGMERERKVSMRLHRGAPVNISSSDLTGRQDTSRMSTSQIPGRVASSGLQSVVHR
Procedure: CK1δ inhibition enzymatic assay. The “Kinase-Glo” Kit from Promega was used to screen compounds for activity against CK1δ Kinase-Glo assays were performed in assay buffer using black 96-well plates. In a typical assay, 10 μl of test compound (dissolved in DMSO at 1 mM concentration and diluted in advance in assay buffer to the desired concentration) 10 μl (16 ng) of enzyme were added to each well followed by 20 µl of assay buffer containing 0,1 % casein as substrate […]
exceed 1%. After 60-min incubation at 30°C the enzymatic reaction was stopped […]
with 40 μl of Kinase-Glo reagent. Glow-type luminescence was recorded after 10 min using a FLUOstar Optima (BMG Labtechnologies GmbH, Offenburg, Germany) multimode reader. The activity is proportional to the difference of the total and consumed ATP. The inhibitory activities were calculated on the basis of maximal activities measured in the absence of inhibitor. The IC50 was defined as the concentration of each compound that reduces a 50% the enzymatic activity with respect to that without inhibitors. […]
Ibérica SAU). Kinase-Glo Luminescent Kinase Assay was obtained from Promega (Promega Biotech Ibérica, SL). ATP and all other reagents were from Sigma Aldrich (St. Louis, MO). Assay buffer contained 50 mM HEPES (pH 7.5), 1 mM EDTA, 1 mM EGTA, and 15 mM magnesium acetate. […]

BACE1 = BACE1 (Homo sapiens, UniProt P56817); assay: BACE1 enzymatic assay (FRET); type: biochemical
Sequence of BACE1 (P56817 46-501): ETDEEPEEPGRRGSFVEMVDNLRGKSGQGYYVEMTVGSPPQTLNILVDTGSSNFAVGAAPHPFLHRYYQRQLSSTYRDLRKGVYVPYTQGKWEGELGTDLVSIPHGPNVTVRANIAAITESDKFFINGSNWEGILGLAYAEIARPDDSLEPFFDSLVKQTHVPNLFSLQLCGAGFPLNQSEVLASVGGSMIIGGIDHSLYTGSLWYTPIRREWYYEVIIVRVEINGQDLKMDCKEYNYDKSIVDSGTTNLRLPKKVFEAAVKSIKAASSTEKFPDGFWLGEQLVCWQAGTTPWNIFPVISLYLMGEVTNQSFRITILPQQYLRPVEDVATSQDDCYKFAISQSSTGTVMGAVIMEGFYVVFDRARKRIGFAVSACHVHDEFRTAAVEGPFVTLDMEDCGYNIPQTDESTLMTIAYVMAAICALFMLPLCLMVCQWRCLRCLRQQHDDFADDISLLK
Procedure: BACE1 enzymatic assay. BACE1 in vitro assays were carried out using FRET.
μM) carrying the Swedish mutation and containing a rhodamine as a fluorescence donor and a quencher acceptor at each end was used. The intact substrate is weakly fluorescent and becomes highly fluorescent upon enzymatic cleavage.
The assays were conducted in 50 mM sodium acetate buffer, pH 4.5, in a final

Human recombinant GSK3β = target: T1, Human recombinant GSK3β (Homo sapiens, UniProt P49841); assay: GSK3β inhibition enzymatic assay (Kinase-Glo); type: biochemical
T1 construct: purchased Millipore (Millipore Ibérica SAU)
T1 sequence (P49841 whole entry): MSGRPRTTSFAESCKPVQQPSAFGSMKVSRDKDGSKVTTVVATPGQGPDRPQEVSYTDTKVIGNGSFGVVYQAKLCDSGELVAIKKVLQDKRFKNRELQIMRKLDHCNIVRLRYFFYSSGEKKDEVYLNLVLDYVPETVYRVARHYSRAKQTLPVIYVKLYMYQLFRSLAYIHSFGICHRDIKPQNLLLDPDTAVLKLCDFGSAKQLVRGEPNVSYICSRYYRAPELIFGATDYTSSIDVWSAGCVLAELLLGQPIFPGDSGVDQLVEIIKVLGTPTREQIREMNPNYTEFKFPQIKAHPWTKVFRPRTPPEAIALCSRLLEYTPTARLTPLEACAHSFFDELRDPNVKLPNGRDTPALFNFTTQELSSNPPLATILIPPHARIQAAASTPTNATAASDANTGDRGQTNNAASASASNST
Procedure: GSK3β inhibition enzymatic assay. Human recombinant GSK3β and the pre-phosphorylated polypeptide substrate were purchased from Millipore (Millipore Ibérica SAU). Kinase-Glo Luminescent Kinase Assay was obtained from Promega (Promega Biotech Ibérica, SL). ATP and all other reagents were from Sigma Aldrich (St. Louis, MO). Assay buffer contained 50 mM HEPES (pH 7.5), 1 mM EDTA, 1 mM EGTA, and 15 mM magnesium acetate.
Kinase-Glo assays were performed in assay buffer using black 96-well plates. In a typical assay, 10 μL (10 μM) of test compound (dissolved in DMSO) at 1 mM concentration and diluted in advance in assay buffer to the desired concentration) and 10 μL (20 ng) of enzyme were added to each well followed by 20 μL of assay buffer containing 25 μM substrate and 1 μM ATP. The final DMSO concentration […]
After 30 min incubation at 30 °C, the enzymatic reaction was stopped with 40 μL of Kinase-Glo reagent. Glow-type luminescence was recorded after 10 min using a FLUOstar Optima (BMG
Labtechnologies GmbH, Offenburg, Germany) multimode reader. The activity is proportional to the difference of the total and consumed ATP. The inhibitory activities were calculated based on maximal activities measured in the absence of inhibitor. The IC50 was defined as the concentration of each compound that reduces a 50 % the enzymatic activity with respect to that without inhibitors. […]

[1] = set-up: method as in earlier work; conditions: PAMPA-BBB reported permeability ref 2; cited from earlier work
LRRK2 = target: T2, LRRK2 (Homo sapiens, UniProt Q5S007); assay: LRRK2 inhibition enzymatic assay (Adapta, ThermoFisher); type: biochemical
T2 construct: purchased ThermoFisher (assay run by the company)
T2 sequence (Q5S007 whole entry): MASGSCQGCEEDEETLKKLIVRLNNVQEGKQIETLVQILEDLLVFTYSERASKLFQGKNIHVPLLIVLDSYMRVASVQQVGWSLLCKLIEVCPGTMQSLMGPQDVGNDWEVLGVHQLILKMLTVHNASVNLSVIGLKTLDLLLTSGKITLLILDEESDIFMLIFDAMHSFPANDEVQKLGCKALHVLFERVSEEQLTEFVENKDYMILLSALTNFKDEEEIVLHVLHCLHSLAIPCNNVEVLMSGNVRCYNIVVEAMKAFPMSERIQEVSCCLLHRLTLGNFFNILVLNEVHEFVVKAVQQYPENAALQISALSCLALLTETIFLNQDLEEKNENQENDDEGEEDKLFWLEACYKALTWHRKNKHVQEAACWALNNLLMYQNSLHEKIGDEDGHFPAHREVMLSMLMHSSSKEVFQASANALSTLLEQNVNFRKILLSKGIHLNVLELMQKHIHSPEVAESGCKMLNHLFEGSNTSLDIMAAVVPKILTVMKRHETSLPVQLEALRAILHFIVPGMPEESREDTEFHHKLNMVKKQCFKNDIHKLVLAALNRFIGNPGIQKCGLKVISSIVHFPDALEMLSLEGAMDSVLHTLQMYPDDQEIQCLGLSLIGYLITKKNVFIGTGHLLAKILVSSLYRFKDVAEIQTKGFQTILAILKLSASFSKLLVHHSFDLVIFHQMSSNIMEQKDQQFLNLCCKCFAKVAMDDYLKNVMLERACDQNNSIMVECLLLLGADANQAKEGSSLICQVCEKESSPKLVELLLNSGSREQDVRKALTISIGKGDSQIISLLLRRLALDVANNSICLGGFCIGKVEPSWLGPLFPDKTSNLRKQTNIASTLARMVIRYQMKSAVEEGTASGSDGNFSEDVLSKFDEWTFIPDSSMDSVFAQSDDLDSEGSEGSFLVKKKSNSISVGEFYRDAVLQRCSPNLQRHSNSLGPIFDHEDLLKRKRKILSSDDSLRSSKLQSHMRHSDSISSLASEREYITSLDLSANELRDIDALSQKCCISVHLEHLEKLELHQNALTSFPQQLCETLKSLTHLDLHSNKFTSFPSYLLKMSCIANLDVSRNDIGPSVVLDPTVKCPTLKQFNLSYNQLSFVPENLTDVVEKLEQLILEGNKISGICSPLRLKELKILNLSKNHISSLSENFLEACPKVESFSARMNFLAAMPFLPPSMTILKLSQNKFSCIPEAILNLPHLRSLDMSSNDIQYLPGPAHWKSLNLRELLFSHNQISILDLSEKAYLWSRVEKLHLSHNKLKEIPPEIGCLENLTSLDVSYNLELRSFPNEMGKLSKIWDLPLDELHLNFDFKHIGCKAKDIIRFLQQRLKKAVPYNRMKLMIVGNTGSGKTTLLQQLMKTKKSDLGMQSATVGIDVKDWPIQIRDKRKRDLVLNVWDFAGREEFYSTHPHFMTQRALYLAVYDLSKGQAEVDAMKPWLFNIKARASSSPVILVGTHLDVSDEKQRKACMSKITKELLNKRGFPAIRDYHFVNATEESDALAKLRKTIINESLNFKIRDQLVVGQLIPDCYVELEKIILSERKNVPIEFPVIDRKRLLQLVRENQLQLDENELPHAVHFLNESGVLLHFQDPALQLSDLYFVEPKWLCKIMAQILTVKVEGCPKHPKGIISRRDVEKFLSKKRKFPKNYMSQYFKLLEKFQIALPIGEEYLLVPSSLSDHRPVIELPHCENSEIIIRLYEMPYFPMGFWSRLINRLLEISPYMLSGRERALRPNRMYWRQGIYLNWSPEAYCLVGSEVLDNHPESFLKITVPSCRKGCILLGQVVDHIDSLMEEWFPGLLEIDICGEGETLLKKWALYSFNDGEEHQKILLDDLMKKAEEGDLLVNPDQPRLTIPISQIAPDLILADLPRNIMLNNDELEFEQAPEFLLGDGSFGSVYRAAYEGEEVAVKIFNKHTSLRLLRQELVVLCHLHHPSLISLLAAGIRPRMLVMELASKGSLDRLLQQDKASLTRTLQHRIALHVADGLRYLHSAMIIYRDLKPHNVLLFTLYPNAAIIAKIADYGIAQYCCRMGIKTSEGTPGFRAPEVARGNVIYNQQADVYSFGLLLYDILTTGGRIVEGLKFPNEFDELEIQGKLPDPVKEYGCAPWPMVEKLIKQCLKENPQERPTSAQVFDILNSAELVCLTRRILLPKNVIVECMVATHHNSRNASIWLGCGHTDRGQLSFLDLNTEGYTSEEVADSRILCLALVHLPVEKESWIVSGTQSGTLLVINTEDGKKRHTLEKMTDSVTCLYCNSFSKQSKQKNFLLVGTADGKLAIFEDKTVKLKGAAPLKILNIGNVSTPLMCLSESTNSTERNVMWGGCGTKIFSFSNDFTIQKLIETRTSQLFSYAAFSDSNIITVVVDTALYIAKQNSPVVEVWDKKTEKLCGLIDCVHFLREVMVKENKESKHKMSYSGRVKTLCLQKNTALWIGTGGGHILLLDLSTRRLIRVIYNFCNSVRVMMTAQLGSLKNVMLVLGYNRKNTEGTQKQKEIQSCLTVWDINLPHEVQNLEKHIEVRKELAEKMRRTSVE

SK-APP cells = assay: Aβ40 and Aβ42 levels in SK-APP cells (sandwich ELISA); type: cell-based, human; conditions: 10 μM, 48 h treatment
Procedure: page 35: enzyme concentration (1 U/mL). Inhibitor screening at 10 μM. The mixture was incubated for 60 min at 25 °C under dark conditions and then stopped with 2.5 M sodium acetate. Fluorescence was measured with a FLUOstar Optima (BMG Labtechnologies GmbH, Offenburg, Germany) microplate reader at 545 nm excitation and 585 nm emission. Evaluation of BACE Inhibitors Kinetics. To evaluate the mechanism of BACE1 inhibition of the compounds, substrate-dependent kinetic experiments were performed. BACE activity were measured at five different concentrations substrate (1000 -62,5 μM) in the absence or presence of the select inhibitor at two different concentrations. The results are presented as double reciprocal Lineweaver-Burk plots (1/V vs 1/[S]) Figure S1. Cell culture and treatments. SK-N-MC cells stably expressing the human isoform APP695 (SK-APP cell line […]1) were generated by transfection of SK-N-MC cells with a pCDNA3-APP expression vector, and kindly provided by Dr. MJ Bullido. These cells were cultured in DMEM (Thermo Fisher) medium supplemented with 10% FBS (Thermo Fisher), 1 mM glutamine (Sigma- Aldrich), and 100 unit/ml penicillin (Lonza) and […] streptomycin (Lonza). Cell cultures were maintained in a 5% CO2, humidified atmosphere at 37 °C. SH-SY5Y cells were obtained from the American Type Culture Collection and grown in DMEM media (Gibco), supplemented with 10% foetal bovine serum, and 1% penicillin/streptomycin (Invitrogen). The cells were grown at 37 °C in a humidified 5% CO2 atmosphere. For the treatments, all the compounds were dissolved in dimethyl sulfoxide (DMSO, from Sigma) at an initial stock concentration of 10 mM. […] working solutions were obtained from the dilution of the stock solutions in DMEM media (DMSO control solutions were prepared similarly to the compounds). Okadaic acid (OA, Sigma-Aldrich) was dissolved in DMSO at an initial stock concentration of 60 μM and a 250X working solution was obtained from the dilution of the stock solution in DMEM. All the compounds (250x solutions) were added directly into the wells at the indicated final concentrations for 1 hour before the treatment with OA at a final concentration of 30 nM. DMSO was added at the appropriate concentration to the 34 page 36: control-untreated cells. The cells were maintained in the presence of the OA and the different compounds for 24h. Measurement of cell viability. Cell viability assays were carried out using a 3- […] (Sigma-Aldrich) in 96-well cell culture plates. All cells were then incubated with a 0.5 mg/ml MTT solution (Sigma-Aldrich) at 37 °C for 4 h and then with cell lysis […] The absorbance values were determined at 590 nm. Cell viability was expressed as a percent of OD of control cells, the value of which was defined as 100%. Cell viability in SH-SY5Y were carried out following the same procedure but seeding the cells in 24 well multiplates. Absorbance was measured using a Varioskan Flash multiplate reader (Thermo Scientific) at test 550 nm and reference 664 nm wave-lengths. Compound concentration for SK-APP line was 10 μM and for the SH-SY5Y was 1 and 5 μM. Immunoassays. Levels of Aβ40 and Aβ42 were quantified by sandwich ELISAs (Wako, Osaka, Japan) from cellular lysates and conditioned media collected. CNS penetration: in vitro PAMPA-BBB test. Prediction of the brain penetration was evaluated using a parallel artificial membrane permeability assay (PAMPA).1 Nine quality control compounds (mentioned below) of know BBB permeability were included in each experiment to validate the analysis set.2 Commercial drugs […] dissolved in 250 μL of DMSO (Sigma-Aldrich). 25 μL of these compound stock solutions were taken and 225 μL of DMSO and 4750 μL of PBS pH 7.4 buffer were added to reach 5% of DMSO concentration in the experiment and a final […] Compounds to be determined their ability to pass the brain barrier (0.5-1 mg) were dissolved in 250 μL of DMSO and 4750 μL of PBS pH 7.4 was carefully added to afford a final […]

SH-SY5Y cells = assay: Okadaic acid-induced cell death model, viability of SH-SY5Y cells; type: cell-based, human; conditions: OA 30 nM, 24 h, compound 1 and 5 µM
Procedure: page 35: enzyme concentration (1 U/mL). Inhibitor screening at 10 μM. The mixture was incubated for 60 min at 25 °C under dark conditions and then stopped with 2.5 M sodium acetate. Fluorescence was measured with a FLUOstar Optima (BMG Labtechnologies GmbH, Offenburg, Germany) microplate reader at 545 nm excitation and 585 nm emission. Evaluation of BACE Inhibitors Kinetics. To evaluate the mechanism of BACE1 inhibition of the compounds, substrate-dependent kinetic experiments were performed. BACE activity were measured at five different concentrations substrate (1000 -62,5 μM) in the absence or presence of the select inhibitor at two different concentrations. The results are presented as double reciprocal Lineweaver-Burk plots (1/V vs 1/[S]) Figure S1. Cell culture and treatments. […] The absorbance values were determined at 590 nm. Cell viability was expressed as a percent of OD of control cells, the value of which was defined as 100%. […] Absorbance was measured using a Varioskan Flash multiplate reader (Thermo Scientific) at test 550 nm and reference 664 nm wave-lengths. […] Levels of Aβ40 and Aβ42 were quantified by sandwich ELISAs (Wako, Osaka, Japan) from cellular lysates and conditioned media collected. […] Compounds to be determined their ability to pass the brain barrier (0.5-1 mg) were dissolved in 250 μL of DMSO and 4750 μL of PBS pH 7.4 was carefully added to afford a final […]

Compound: Cn1c(=O)c2c(ncn2C)n(C)c1=O [Caffeine, caffeine, reference compound]
- Papp at 2.5 h (PAMPA-BBB test): 1.45 ± 0.26 ×10⁻⁶ cm/s

- Papp at 2.5 h (PAMPA-BBB test): 7.44 ± 0.9 ×10⁻⁶ cm/s
Compound: CNCCCN1c2ccccc2CCc2ccccc21 [Desipramine, desipramine, reference compound]

- Pe exp (PAMPA-BBB test): 1.41 ± 0.05 10-6 cm s-1
Compound: CCn1cc(C(=O)O)c(=O)c2cc(F)c(N3CCNCC3)nc21 [Enoxacine, enoxacine, reference compound]

- IC50 (CK1δ): 330 ± 30 nM
- IC50 (BACE1): > 20000 nM
Compound: O=C(Cc1ccccc1)Nc1nc2ccccc2s1 [MBC-858, reference compound]

- IC50 (Human recombinant GSK3β): 530 ± 30 nM
- IC50 (BACE1): > 20000 nM
Compound: CCn1sc(=O)n(Cc2ccccc2)c1=O [MBC-2138, reference compound]

- Papp at 2.5 h (PAMPA-BBB test): 2.92 ± 0.37 ×10⁻⁶ cm/s
Compound: CN1C(C(=O)Nc2ccccn2)=C(O)c2ccccc2S1(=O)=O [Piroxicam, piroxicam, reference compound]
- Pe Bibl. [1]: 2.5 10-6 cm s-1

- Papp at 2.5 h (PAMPA-BBB test): 5.18 ± 0.43 ×10⁻⁶ cm/s
Compound: CN(C)CCCN1c2ccccc2Sc2ccccc21 [Promazine, promazine, reference compound]
- Pe Bibl. [1]: 8.8 10-6 cm s-1

- IC50 (LRRK2): 1880 nM
- IC50 (BACE1): 7140 nM
Compound: O=C(Nc1nc2ccccc2s1)c1ccc(CSCCCSCc2ccc(C(=O)Nc3nc4ccccc4s3)cc2)cc1 [compound 3]

- IC50 (Human recombinant GSK3β): 2360 ± 270 nM
- Pe exp (PAMPA-BBB test): 0 10-6 cm s-1
- IC50 (LRRK2): 820 ± 140 nM
- IC50 (BACE1): 3310 ± 270 nM
Compound: CCn1sc(=O)n(Cc2cn(Cc3ccc(C(=O)Nc4nc5ccccc5s4)cc3)nn2)c1=O [compound 14]
- Aβ42 levels in cellular lysates (intracellular) (SK-APP cells): unchanged
- Aβ42 levels in extracellular fluid (SK-APP cells): significant decrease
- CNS prediction (PAMPA-BBB test): CNS- (CNS‐ (red) for compounds with Pe <1.88×10^−6 cm s^−1)
- Neuroprotection against okadaic acid (OA) toxicity (SH-SY5Y cells): rescue from the toxic effect of OA
